From ChEMBL document CHEMBL1201862, “PubChem BioAssay data set” (2004)
Activity calls are given as the source filed them.

Assays:
[1] = inhibitors of intracellular T. cruzi replication, confirmation, NIH3T3 host cells, beta-gal luminescence (AID 2044); assay type: functional, cell-based;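 further: intracellular parasites grown in NIH/3T3 mouse fibroblasts as host cells; luminescent beta-galactosidase reporter signal from transgenic T. cruzi replicating inside host cells; inhibitors lower the luminescence signal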
[2] = target: T1, Rac GTPase-activating protein 1 (Homo sapiens, UniProt Q9H0H5); assay: MgcRacGAP GTPase-activating activity inhibitors, confirmation, biochemical, ADP Hunter fluorescence, primary and confirmatory (AID 624330); assay type: functional
T1 sequence (Q9H0H5 whole entry): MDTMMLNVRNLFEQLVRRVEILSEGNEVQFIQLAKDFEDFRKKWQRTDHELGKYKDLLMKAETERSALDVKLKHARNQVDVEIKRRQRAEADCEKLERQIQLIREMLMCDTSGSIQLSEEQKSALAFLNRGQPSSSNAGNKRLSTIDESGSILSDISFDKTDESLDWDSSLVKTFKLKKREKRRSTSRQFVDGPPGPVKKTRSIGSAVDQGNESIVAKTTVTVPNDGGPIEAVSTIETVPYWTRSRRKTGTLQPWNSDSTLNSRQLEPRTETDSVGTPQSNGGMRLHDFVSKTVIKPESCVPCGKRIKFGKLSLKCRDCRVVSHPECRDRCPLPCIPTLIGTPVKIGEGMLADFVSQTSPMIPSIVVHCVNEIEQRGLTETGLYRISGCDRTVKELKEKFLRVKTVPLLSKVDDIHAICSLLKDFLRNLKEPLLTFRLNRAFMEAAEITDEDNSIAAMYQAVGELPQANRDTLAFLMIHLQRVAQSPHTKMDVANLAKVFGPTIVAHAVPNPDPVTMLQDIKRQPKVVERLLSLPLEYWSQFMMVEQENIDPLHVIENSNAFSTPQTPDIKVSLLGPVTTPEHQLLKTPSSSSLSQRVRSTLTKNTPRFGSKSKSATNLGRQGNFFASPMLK

[3] = cytotoxicity toward NIH3T3 fibroblasts, dose response, counter-screen, cell-based, ATP luminescence, mouse fibroblasts (AID 2010); assay type: functional;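 further: cells exposed to compound for about 90 hours before reading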
[4] = target: FAD-linked sulfhydryl oxidase ALR (Homo sapiens, UniProt P55789); assay: inhibitors of human ALR sulfhydryl oxidase, dose response, biochemical, H2O2 detection, luminescence, cherry-pick (AID 493248)
FAD-linked sulfhydryl oxidase ALR, sequence (P55789 whole entry): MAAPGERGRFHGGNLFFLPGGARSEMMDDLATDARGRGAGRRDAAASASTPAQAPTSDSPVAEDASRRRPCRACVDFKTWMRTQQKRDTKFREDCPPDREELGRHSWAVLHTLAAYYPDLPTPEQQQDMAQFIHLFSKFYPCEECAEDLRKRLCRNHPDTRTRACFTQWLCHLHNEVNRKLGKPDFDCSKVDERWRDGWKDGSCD

[5] = tested on: H9c2; assay: cells; assay type: functional, cell-based; conditions: Rattus norvegicus, H9c2, Myocardium;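 further: confirmatory concentration-response retest of ultra-high-throughput screening hits for modulation of myocardial damage; cell death induced by hydrogen peroxide oxidative stress; compound pretreatment for 60 min then peroxide exposure for 2 h; potency is for protecting the cells against peroxide damage rather than for killing them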
[6] = tested on: Streptococcus; assay: Group A Streptococcus viability loss, dose response, counter-screen for streptokinase expression inhibitor project, luminescence, BacTiterGlo (AID 1915); assay type: functional, organism-based;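 further: potency for reduction of bacterial viability or growth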
[7] = tested on: Streptococcus sp. 'group A'; assay: growth inhibition of control SK(-) GAS strain, dose response, counter-screen for streptokinase expression inhibitor project, luminescence, kanamycin, BacTiterGlo, confirmation (AID 1900); assay type: functional, organism-based
[8] = target: T2, Streptokinase A (Streptococcus pyogenes serotype M1, UniProt P10520); assay: S. pyogenes streptokinase expression inhibitors, potency, dose response, plasminogen activation absorbance, OD405 (AID 1914); assay type: functional, Streptococcus pyogenes M1 GAS;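 further: secreted streptokinase activity via plasminogen activation per viability signal from cell pellet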
T2 sequence (P10520 whole entry): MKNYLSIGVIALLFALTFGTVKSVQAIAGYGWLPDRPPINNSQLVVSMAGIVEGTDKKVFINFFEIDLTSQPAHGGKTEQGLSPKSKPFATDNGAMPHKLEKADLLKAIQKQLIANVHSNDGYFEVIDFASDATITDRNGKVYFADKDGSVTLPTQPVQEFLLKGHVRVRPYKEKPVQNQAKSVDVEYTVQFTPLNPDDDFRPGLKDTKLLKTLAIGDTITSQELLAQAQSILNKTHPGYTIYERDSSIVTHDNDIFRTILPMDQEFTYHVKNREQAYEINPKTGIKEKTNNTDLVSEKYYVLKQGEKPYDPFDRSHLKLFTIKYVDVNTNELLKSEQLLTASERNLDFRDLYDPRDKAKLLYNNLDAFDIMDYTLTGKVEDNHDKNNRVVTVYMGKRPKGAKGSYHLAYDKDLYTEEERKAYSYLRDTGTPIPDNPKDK

[9] = Luminescence Cell-Based Dose Retest to Confirm Inhibitors of Cancer Stem Cells. [Related pubchem assays (depositor defined):AID2717, AID2721]; assay type: functional; conditions: Homo sapiens
[10] = tested on: INS1; assay: beta cell apoptosis inhibitors, cytokine rescue, dose response, luminescence, retest (AID 449756); assay type: functional, cell-based; conditions: Rattus norvegicus;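 further: cell death triggered by IL-1 beta plus TNF-alpha plus IFN-gamma mixture; protective hits raise ATP signal compared with cytokine alone wells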
[11] = target: T3, Cytochrome P450 1A2 (Homo sapiens, UniProt P05177);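 further: PubChem cytochrome P450 panel assay, CYP1A2 panel member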
T3 sequence (P05177 whole entry): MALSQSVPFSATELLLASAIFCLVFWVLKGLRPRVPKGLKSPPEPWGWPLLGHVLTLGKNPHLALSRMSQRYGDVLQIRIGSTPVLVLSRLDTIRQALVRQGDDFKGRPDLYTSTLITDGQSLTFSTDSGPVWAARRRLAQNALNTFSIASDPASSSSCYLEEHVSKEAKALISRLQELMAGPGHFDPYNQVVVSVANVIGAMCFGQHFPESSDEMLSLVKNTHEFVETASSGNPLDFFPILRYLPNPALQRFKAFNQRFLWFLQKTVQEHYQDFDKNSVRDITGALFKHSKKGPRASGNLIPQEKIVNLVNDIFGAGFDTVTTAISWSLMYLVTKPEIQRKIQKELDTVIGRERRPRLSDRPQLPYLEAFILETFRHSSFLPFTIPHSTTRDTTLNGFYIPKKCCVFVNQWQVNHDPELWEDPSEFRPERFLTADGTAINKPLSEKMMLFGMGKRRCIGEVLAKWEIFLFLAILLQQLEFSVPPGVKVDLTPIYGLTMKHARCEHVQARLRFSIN

[12] = target: Cytochrome P450 2D6 (Homo sapiens, UniProt P10635);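 further: CYP2D6 member of a cytochrome P450 panel assay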
Cytochrome P450 2D6, sequence (P10635 whole entry): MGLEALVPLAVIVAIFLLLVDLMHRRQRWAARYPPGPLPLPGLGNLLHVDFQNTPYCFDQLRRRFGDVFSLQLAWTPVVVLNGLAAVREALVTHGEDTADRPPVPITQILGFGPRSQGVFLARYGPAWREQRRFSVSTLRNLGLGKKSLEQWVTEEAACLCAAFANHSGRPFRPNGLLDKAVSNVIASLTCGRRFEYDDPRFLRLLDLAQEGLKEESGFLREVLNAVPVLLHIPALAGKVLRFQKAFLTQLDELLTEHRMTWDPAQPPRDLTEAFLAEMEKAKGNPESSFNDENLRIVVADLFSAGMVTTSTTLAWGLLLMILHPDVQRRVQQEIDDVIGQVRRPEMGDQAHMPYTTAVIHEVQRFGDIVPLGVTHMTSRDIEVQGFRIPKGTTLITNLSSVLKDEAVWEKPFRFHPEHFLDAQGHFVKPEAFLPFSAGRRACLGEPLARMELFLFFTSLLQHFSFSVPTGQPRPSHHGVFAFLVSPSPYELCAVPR

[13] = target: T4, Corticotropin-releasing factor receptor 2/Corticotropin-releasing factor-binding protein (Homo sapiens, UniProt P24387+Q13324); assay: activators of CRF receptor 2 with binding protein – uHTS hits, confirmation (AID 602473); assay type: functional; conditions: read-out: EC50_Mean
T4 sequence (Q13324 whole entry): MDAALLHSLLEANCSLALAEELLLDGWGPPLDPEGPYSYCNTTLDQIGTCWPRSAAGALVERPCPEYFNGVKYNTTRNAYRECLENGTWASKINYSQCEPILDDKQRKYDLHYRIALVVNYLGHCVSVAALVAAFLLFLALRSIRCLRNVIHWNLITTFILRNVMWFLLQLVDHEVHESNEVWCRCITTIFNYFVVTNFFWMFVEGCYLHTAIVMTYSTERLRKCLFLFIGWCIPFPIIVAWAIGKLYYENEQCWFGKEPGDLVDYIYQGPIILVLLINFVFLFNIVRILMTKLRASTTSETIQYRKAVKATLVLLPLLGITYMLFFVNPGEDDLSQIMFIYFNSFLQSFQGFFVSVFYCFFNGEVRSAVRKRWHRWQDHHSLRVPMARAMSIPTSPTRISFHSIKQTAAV
T4 sequence (P24387 whole entry): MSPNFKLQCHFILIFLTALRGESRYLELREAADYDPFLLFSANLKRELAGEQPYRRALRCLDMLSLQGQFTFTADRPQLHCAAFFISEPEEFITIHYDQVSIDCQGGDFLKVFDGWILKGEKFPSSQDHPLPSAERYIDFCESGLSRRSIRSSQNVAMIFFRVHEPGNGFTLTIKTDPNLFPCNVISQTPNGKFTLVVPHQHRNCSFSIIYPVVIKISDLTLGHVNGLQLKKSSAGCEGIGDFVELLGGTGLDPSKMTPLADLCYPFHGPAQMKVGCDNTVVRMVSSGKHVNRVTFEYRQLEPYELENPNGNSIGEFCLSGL

CNC(=S)N/N=C/c1ccc(N2CCOCC2)s1
EC50 [1]: > 60 µM (not active) | IC50 [2]: 28.3 µM (active) | EC50 [3]: > 60 µM (not active)

Nc1n[nH]c(Nc2ccccc2)n1
AC50 [4]: 1.79 µM (active)

O=C(N/N=C/c1cccc(O)c1)c1cc(-c2ccc3c(c2)OCO3)[nH]n1
IC50 [5]: > 79 µM (inactive)

O=C(CCc1nc(O)c2ccccc2n1)NCCN1C(=O)S/C(=C\c2ccc(OC(F)F)cc2)C1=O
IC50 [5]: > 79 µM (inactive)

CCCc1cc(N2CCN(C(=O)c3ccco3)CC2)n2c(nc3ccccc32)c1C#N
IC50 [5]: > 79 µM (inactive)

Cc1cc(C)c(S(=O)(=O)Nc2ccc(O)cc2)c(C)c1
IC50 [2]: 69.7 µM (active) | AC50 [4]: 0.694 µM (active)

O=C(COC(=O)CCc1nc(O)c2ccccc2n1)Nc1ccc2c(c1)OCO2
IC50 [5]: > 79 µM (inactive)

COc1ccc(C2CC(c3ccccc3)=NN2C(=O)COC(=O)c2nc3nc(C)cc(C)n3n2)cc1 (centres undefined)
EC50 [1]: 3.19 µM (active) | EC50 [3]: > 60 µM (not active)

COc1ccc2c(c1)NC(C)(C)C=C2C
EC50 [1]: 2.71 µM (active) | EC50 [3]: > 60 µM (not active)

CCn1cc(C(=O)NC(=S)Nc2ccccc2Br)cn1
EC50 [6]: > 150 µM (not active) | EC50 [7]: > 150 µM (not active) | EC50 [8]: > 150 µM (not active)

Cc1csc2nc(COC(=O)c3ccc(Cl)c([N+](=O)[O-])c3)cc(=O)n12
IC50 [5]: > 79 µM (inactive)

Cc1sc2nc(SCC(=O)NCc3ccco3)nc(O)c2c1C
IC50 [5]: > 79 µM (inactive)

CCOC(=O)c1c(NC(=O)C[n+]2ccc(N(C)C)cc2)sc(C)c1C
EC50 [1]: 1.44 µM (active) | EC50 [3]: > 60 µM (not active)

Cc1ccccc1OCC(=O)NNC(=O)Cn1[nH]c(=O)c2ccccc2c1=O
IC50 [5]: > 79 µM (inactive)

COc1ccccc1N1CCN(CCc2nnc(S)n2-c2ccccc2)CC1
AC50 [4]: 2.88 µM (active)

CCN(CC)c1ccc(/C=N/NC(=O)CCC(=O)NCc2ccccc2)c(O)c1
EC50 [6]: 4.53 µM (active) | EC50 [7]: 3.22 µM (active) | AC50 [9]: 5.66 µM (active) | AC50 [10]: 1.7 µM (active)

O=C(CCc1nc(O)c2ccccc2n1)N1CCN(S(=O)(=O)c2cccc(F)c2)CC1
IC50 [5]: > 79 µM (inactive)

C[C@H](CO)N1C[C@H](C)[C@@H](CN(C)C(=O)Nc2ccc3c(c2)OCO3)Oc2c(NC(=O)Nc3ccc(C(F)(F)F)cc3)cccc2C1=O
IC50 [5]: 21.3 µM (active)

Cc1ccc(/C=C2\C(=O)NC(=O)N(Cc3ccccc3Cl)C2=O)o1
AC50 [4]: 0.494 µM (active)

Cn1nnnc1SC1CC(=O)N(c2ccccc2)C1=O (centres undefined)
EC50 [1]: 3.7 µM (active) | EC50 [3]: 7.1 µM (active)

Cn1c(/C=N/NC(=O)c2ccccc2)nc2ccccc21
IC50 [5]: 13.5 µM (active)

O=C(Nc1nc2ccccc2n1Cc1ccccc1)c1ccc(COc2ccccc2[N+](=O)[O-])o1
EC50 [1]: 1.25 µM (active) | AC50 [11]: 1.78 µM (inconclusive) | AC50 [12]: 17.8 µM (inconclusive) | EC50 [3]: > 60 µM (inconclusive)

COc1ccc(-c2cc(C#N)nc(N3CCN(C)CC3)n2)cc1
EC50 [1]: 1.95 µM (active) | EC50 [3]: > 30 µM (not active)

Oc1ccccc1CNc1cnc2ccccc2c1
AC50 [4]: 37.9 µM (active)

CN1C(=O)C(=C/C=C/Nc2ccccc2)C(=O)N(C)C1=O
EC50 [13]: > 53 µM (inactive)

Nc1ccc(Cl)cc1/C(=N/O)c1ccccc1
AC50 [4]: 22.8 µM (active)

COc1cccc(-c2cc3nc(C)c(C)c(N4CCN(C(=O)c5ccoc5)CC4)n3n2)c1
IC50 [5]: > 79 µM (inactive)

CN1/C(=C\C(=O)c2ccco2)C(C)(C)c2ccccc21
AC50 [10]: 6.55 µM (active)

CC(c1nnc(S)n1-c1ccc(F)cc1)N1CCCCC1 (centres undefined)
AC50 [4]: 5.03 µM (active)

Nc1cc(O)nc(SCc2csc(-c3ccccc3)n2)n1
AC50 [4]: 5.71 µM (active)

CN(Cc1nc(-c2ccccn2)no1)S(=O)(=O)c1ccc(Cl)cc1
EC50 [13]: > 53 µM (inactive)

O=C(NNC(=S)NC(=O)c1ccccc1)c1ccc(O)cc1
EC50 [6]: 52.4 µM (inconclusive) | EC50 [7]: 4.64 µM (active) | EC50 [8]: > 150 µM (not active)

Cc1ccc(Cl)cc1N1CCN(Cc2cc3c(cc2O)CCC3)CC1
EC50 [1]: 2.65 µM (active) | EC50 [3]: > 60 µM (not active)

O=C(Nc1ccc(O)cc1)c1cc(S(=O)(=O)N2CCCC2)ccc1Cl
AC50 [4]: 2.49 µM (active)

CC(=N\Nc1ccccc1)/C(=N/O)C(=O)Nc1ccccc1
AC50 [4]: 2.49 µM (active)

COc1ccc(-n2c(/C=C/c3ccc(O)cc3)nc3ccccc3c2=O)cc1
IC50 [5]: > 79 µM (inactive)

COCCn1c(C2CCCCC2)nc2sc3ccccc3c(=O)c2c1=O
EC50 [1]: 2.28 µM (active) | EC50 [3]: > 60 µM (not active)

CCn1c(=N)n(CC(=O)C23CC4CC(CC(C4)C2)C3)c2ccccc21
EC50 [1]: 0.223 µM (active) | EC50 [3]: > 60 µM (not active)

COCCCN1C(=O)/C(=C/c2ccc(CNS(=O)(=O)c3ccccc3)o2)C(C(=O)OC)=C1C
EC50 [6]: > 150 µM (not active) | EC50 [7]: 28.9 µM (active) | EC50 [8]: > 150 µM (not active)

COc1ccc(OC)c(CCNC(=O)C(=O)Nc2ccc3nc4n(c(=O)c3c2)CCCCC4)c1
EC50 [6]: 18.3 µM (active) | EC50 [7]: 4.97 µM (active) | EC50 [8]: 16.6 µM (active)

CCC(CC)C(=O)c1c[nH]c(C(=O)NCc2ccccn2)c1
AC50 [10]: > 260 µM (inactive)

Cc1ccc2ccc(C(Nc3ccccn3)c3ccccc3)c(O)c2n1 (centres undefined)
EC50 [6]: 63.5 µM (active) | EC50 [7]: 1.52 µM (active) | EC50 [8]: > 150 µM (not active)
